# According to PubChem BioAssay AID624265 (Broad Institute, 2012):
# System: NIH3T3 viability, CellTiter-Glo ATP luminescence
# Experiment: NIH3T3 cell viability loss, ATP content – CellTiter-Glo luminescence, cherry-pick, set 2, cytotoxicity control for HSP40 inhibitor project, dose response (AID 624265);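 further: cells exposed to compound for 48 hours before the ATP read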
row,SMILES,AC35
1,Cc1c(Cc2ccccc2)c(NCCN(C)C)n2c(nc3ccccc32)c1C#N,16.3 µM
2,CCCCCCCCCCOC(=O)Cn1c(COc2ccccc2OC)[n+](C)c2ccccc21,26.7 µM
3,Oc1cccc2ccc(Nc3ccccn3)nc12,14.2 µM
4,COc1cccc(/C=N/Nc2ncnc(Cl)c2N)c1O,47.2 µM
5,CCOC(=O)c1cc2c(=Cc3ccc(N(C)C)cc3)c3ccccc3n2[n+]1C,29 µM
6,CC1=CC(=O)C=C(C)C1=NOS(=O)(=O)c1ccccc1,27.6 µM
7,CC(=O)Oc1ccc(OC(C)=O)c(SCCCCCCl)c1,42.6 µM
8,O=[N+]([O-])c1ccc(Sc2cccc[n+]2[O-])c2nonc12,4.46 µM
9,Nc1cc2nc3ccccc3oc-2cc1=O,28 µM
10,COc1cccc(/C=N/Nc2ncnc3scc(-c4ccccc4)c23)c1O,48.4 µM
11,Oc1c(C(Nc2cccc(C(F)(F)F)c2)c2ccncc2)ccc2cccnc12 (stereo not given),48.9 µM
12,CCC(=O)NC(c1ccco1)c1cc(Cl)c2cccnc2c1O (stereo not given),49.1 µM
13,O=CC1=C(c2ccccc2)Oc2ccccc2O1,47.5 µM
14,CN(C)c1ccc(C=c2c3ccccc3n3c2c2c([n+]3C)CCCC2)cc1,33.3 µM
15,CNc1ccc2oc(C[C@H]3O[C@@]4(CC[C@H]3C)O[C@H]([C@H](C)C(=O)c3ccc[nH]3)[C@H](C)C[C@H]4C)nc2c1C(=O)O,11.1 µM
